Results on one compound are retold here after patent US20150352111A1, “Therapeutic Indications of Kinase Inhibitors” (Pulmokine, Inc., priority 2013, published 2015).

Data set [1] in a line: Fluorescent imaging of lung distribution of inhaled drug with IR780 tracer. The class given is in vivo, rat. The settings on record: inhalation with IR780 tracer, 2 min exposure. On the procedure: The spatial distribution of inhaled PK10453 in the lung was evaluated by fluorescent imaging. For this study, a near IR fluorescent tracer, IR-780, was added to the drug solution in the nebulizer. In this way, the dried aerosol particles contained both the drug and IR tracer. After a two minute exposure, animals were placed under general anesthesia underwent intubation via tracheostomy, and the lungs were excised. OCT/PBS was infused via the pulmonary artery, the lung insufflated with air, and the lungs frozen in the vapor phase of liquid nitrogen. Serial approximate 2 mm sections of the lung were made and imaged on a Licor Odyssey Imager.

In another data set the test system is pSTAT3/STAT3. The data set can be described thus: NanoPro immunoassay of lung extracts, MCT+PN model. The class given is in vivo, rat. The settings on record: D4 and D8 groups compared to vehicle. On the procedure: (§1) NanoPro Immunoassay. Relative differences in phosphorylated ERK1/2 and STAT isoforms were measured with a NanoPro100® immunoassay system (Protein Simple/Cell Biosciences, CA). See Fan et al., “Nanofluidic proteomic assay for serial analysis of oncoprotein activation in clinical specimens.” Nat Med 15:566-571 (2009).

The next data set concerns rat MCT model of PAH. The data set can be described thus: Efficacy study in the rat MCT model. It is filed as in vivo. Here is the method:
Efficacy Study in the Rat MCT Model.
Male Sprague Dawley rats received MCT 60 mg/kg IPMCT, and after 3 weeks, PK10453 or vehicle control were administered by inhalation. Four groups were studied: vehicle control (4 min exposure) and three treatment groups of PK10453 with exposure times 2 minutes (D2), 4 minutes (D4), or 8 minutes (D8) three times a day. These regimens were administered for two weeks. The vehicle consisted of aerosolized IM tosylic acid neutralized with ammonia vapor as described above. The pH of a solution prepared by dissolving captured aerosol particles in water was measured for every dose and was consistently in the range of 5.5-6.0. At the end of the study, the RV systolic pressure (RVSP) was measured, and the heart chambers dissected and weighed.

For data set [2], the system named is rat MCT+PN model of PAH. The data set can be described thus: Histology and morphometric analysis of pulmonary arterioles, MCT+PN model. The class given is in vivo. The source says: Histology and Morphometric Analysis.
At the end of the study, the heart and lungs were removed from ventilated animals under general anesthesia. Heparinized saline was infused under pressure through the main pulmonary artery. The right upper lobe was immediately tied off and placed in liquid nitrogen for Western blot and NanoPro 100 assay analysis. The heart was removed, and the RV free wall, interventricular septum and LV free wall dissected and weighed. Buffered formalin (10%) was infused under pressure both through the pulmonary artery and the trachea. Morphometric analysis was performed on H&E stained formalin fixed tissue sectioned at 8 μm. The media area and lumen area of pulmonary arterioles were measured with Image J software by a technician blinded to treatment group. Measurements were made on 20 pulmonary arterioles per section. The ratio of the lumen area to the total media area was determined. This ratio normalizes the variation in total pulmonary arteriole area.

The nature of data set [3]: Systemic blood pressure study in ambulatory MCT treated rats. The class given is in vivo, rat. The settings on record: inhaled. On the procedure: Systemic Blood Pressure Study.
The effect of PK10453 on systemic BP was studied in ambulatory MCT treated rats with DSI PAC40 transmitters implanted in the descending aorta. Three weeks after administration of MCT 60 mg/kg IP, animals inhaled PK10453 or vehicle three times/day with 4 minute exposure each dose for 7 days. Blood pressure was recorded before each morning dose.

Data set [4] in a line: Body weight, MCT+PN model (FIG. 11). The class given is in vivo, rat. The conditions noted are these: treated vs. vehicle groups. The source says:
FIG. 11 is a graphic representation of subject body weight in vehicle administered and PK10453 treated subjects, where squares indicate vehicle treated (n=10), triangles indicate PK10453 D4 group (n=10), and diamonds indicate PK10453 D8 group (n=6).

Data set [5] has as its system Human pulmonary artery smooth muscle cells. The data set can be described thus: PASMC proliferation assay (Cyquant NF). The conditions noted are these: PDGF BB 50 ng/ml, 24 hours, read-out: IC50, PDGF BB stimulated human PA SMC proliferation. It is filed as cell-based. Here is the method:
PASMC Proliferation Assay.
Human pulmonary artery smooth muscle cells were obtained from Cell Applications (San Diego, Calif.) and grown to 50% confluence in a 96 well format. The cells were switched to serum free media 24 hours prior to stimulation with PDGF BB 50 ng/ml and varying concentrations of PK10453. After 24 hours of treatment, a Cyquant NF Cell proliferation assay was performed (Invitrogen®), and the fluorescent signal was measured with a Cytofluor Plate reader. Data is based on an avg. of 8 replicates at each conc.

A further data set has as its target PDGFR beta receptor (Homo sapiens, UniProt P09619). The data set can be described thus: Z-lyte in vitro kinase assay (Invitrogen Select Screen). It is filed as biochemical. The conditions noted are these: ATP Km. Here is the method:
In Vitro Kinase Assay. A Z-lyte kinase assay was performed to determine the inhibition of PDGFRalpha and PDGFRbeta mediated phosphorylation by PK10453. Ten point titration curves were modeled to calculate the IC50 (Invitrogen Select Screen®).

The target of a further data set is T1, PDGFR alpha receptor (Homo sapiens, UniProt P16234).
T1 construct: purchased Invitrogen (Select Screen service)
The data set is described as above. It is filed as biochemical. The settings on record: ATP Km.

In data set [6] the test system is rat MCT+PN model of PAH. The data set can be described thus: Telemetry study of PA pressure in the rat MCT+PN model. The class given is in vivo. On the procedure:
Efficacy Study in the Rat MCT+PN Model.
Pneumonectomy and implantation of a TRM53P telemetry monitor in the pulmonary artery (Telemetry Research, New Zealand and ADInstruments, Colorado) was carried out in rats. Two weeks after MCT, PK10453 was administered three times daily for 1 week. Dosing was begun 2 weeks after MCT rather than 3 weeks, because in this more aggressive model the animals developed PAH more quickly and developed distress sooner than in MCT only treated animals (Pulmokine unpublished data). The two groups underwent 4 minute exposures of either the vehicle control or PK10453. Sampling of PA pressure was performed 5 minutes before each morning dose in ambulatory animals in room air (est. pressure 716 mm Hg based on elev. of animal facility).

In data set [7] the test system is phospho-ERK1/2 and total ERK1/2. Nature of the data set: NanoPro immunoassay of lung homogenates, MCT+PN model. It is filed as in vivo, rat. The conditions noted are these: D4 and D8 groups compared to vehicle. Here is the method: as §1

Molecules are shown by their SMILES. Entries after “also recorded” stand apart in the source; their conditions may differ.

Sequence of PDGFR beta receptor (P09619 33-1106): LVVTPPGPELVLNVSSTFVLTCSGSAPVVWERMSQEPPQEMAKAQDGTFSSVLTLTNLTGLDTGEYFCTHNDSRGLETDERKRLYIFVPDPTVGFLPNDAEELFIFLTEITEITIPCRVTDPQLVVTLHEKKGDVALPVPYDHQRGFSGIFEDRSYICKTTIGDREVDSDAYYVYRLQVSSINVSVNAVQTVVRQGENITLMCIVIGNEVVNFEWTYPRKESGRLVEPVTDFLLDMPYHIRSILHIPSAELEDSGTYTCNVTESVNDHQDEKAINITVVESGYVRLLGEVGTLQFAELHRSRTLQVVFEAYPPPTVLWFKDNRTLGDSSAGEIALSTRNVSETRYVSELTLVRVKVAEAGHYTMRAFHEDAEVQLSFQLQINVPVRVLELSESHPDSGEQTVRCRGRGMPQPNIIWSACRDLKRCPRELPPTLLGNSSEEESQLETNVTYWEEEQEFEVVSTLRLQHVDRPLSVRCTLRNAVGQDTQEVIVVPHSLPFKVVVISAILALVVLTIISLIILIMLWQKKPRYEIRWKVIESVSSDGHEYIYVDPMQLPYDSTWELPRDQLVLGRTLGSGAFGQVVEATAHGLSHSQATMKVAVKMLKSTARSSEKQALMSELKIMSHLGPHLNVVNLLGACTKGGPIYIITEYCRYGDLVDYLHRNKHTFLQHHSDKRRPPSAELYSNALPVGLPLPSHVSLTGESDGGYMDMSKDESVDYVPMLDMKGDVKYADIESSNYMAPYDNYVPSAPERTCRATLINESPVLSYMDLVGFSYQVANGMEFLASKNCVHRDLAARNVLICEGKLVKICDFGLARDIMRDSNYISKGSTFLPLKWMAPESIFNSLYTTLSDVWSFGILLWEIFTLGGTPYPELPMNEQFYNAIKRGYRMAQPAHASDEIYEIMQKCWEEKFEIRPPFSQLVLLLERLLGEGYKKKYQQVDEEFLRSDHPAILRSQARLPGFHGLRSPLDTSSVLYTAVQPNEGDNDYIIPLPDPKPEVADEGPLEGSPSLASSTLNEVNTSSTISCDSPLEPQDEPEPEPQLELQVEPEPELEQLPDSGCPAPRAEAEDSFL
T1 sequence (P16234 24-1089): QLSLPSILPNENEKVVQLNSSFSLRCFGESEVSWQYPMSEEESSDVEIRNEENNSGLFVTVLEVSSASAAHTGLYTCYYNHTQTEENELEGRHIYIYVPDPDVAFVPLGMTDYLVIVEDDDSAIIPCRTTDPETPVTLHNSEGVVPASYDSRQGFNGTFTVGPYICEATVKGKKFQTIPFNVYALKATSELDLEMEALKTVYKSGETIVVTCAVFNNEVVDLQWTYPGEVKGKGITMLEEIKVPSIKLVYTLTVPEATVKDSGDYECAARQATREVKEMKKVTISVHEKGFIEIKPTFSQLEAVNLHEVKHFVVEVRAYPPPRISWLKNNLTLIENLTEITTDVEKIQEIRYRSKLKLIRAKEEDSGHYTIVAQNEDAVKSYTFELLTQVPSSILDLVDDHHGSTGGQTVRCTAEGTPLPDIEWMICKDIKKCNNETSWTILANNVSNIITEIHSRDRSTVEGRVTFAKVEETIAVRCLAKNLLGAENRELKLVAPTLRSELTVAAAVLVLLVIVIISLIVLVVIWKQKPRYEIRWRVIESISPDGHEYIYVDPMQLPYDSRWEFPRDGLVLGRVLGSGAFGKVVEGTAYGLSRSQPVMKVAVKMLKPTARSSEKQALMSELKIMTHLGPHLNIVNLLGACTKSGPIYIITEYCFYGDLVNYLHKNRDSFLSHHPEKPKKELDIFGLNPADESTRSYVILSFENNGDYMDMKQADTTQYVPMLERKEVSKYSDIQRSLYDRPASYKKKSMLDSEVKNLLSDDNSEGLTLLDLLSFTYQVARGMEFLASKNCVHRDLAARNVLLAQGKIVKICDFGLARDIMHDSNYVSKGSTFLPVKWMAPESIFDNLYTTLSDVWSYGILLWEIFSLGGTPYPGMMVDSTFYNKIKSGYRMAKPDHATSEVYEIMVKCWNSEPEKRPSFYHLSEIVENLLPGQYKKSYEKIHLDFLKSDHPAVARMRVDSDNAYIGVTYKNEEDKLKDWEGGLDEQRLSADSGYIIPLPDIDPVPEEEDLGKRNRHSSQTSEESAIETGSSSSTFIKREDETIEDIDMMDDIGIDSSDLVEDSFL

On to `COc1cc(-c2cncc(N[C@@H](C)c3cccc(NC(=O)c4cncc(C)c4)c3)n2)ccc1O` [PK10453, (S)—N-(3-(1-((6-(4-hydroxy-3-methoxyphenyl)pyrazin-2yl)amino)ethyl)phenyl)-5-methylnicotinamide], for which, in data set [1], the “fluorescence intensity distribution in lung sections” value was “well distributed throughout the lungs”. For the same compound, the pSTAT3/STAT3 ratio result with pSTAT3/STAT3 is given as “significant reduction”. Besides, the RVSP in the data set with rat MCT model of PAH (D2, 2 min inhalation three times a day, two weeks) came out at 51.4±6.5 mm Hg; in the data set on rat MCT model of PAH (D4, 4 min inhalation three times a day, two weeks), 44.4±3.8 mm Hg; in the data set on rat MCT model of PAH (D8, 8 min inhalation three times a day, two weeks) it was 37.1±4.5 mm Hg. Further, the “reduction in RVSP compared to vehicle” value is 44% in the data set with rat MCT model of PAH (D4) and 54% with rat MCT model of PAH (D8). Besides, the “decrease of RV systolic pressure” value in the data set with rat MCT model of PAH (inhaled, dose group not stated) amounted to 50%. In addition, the “RV hypertrophy, ratio (RV+IVS)/LV weight” value in the data set with rat MCT model of PAH (inhaled, two weeks) is “significant reduction”. The entries for the “lumen area to media area ratio (L/M)” value in the data set on rat MCT+PN model of PAH [2] (D4) and in the data set with rat MCT+PN model of PAH [2] (D8) were 0.75±0.14 and 1.17±0.07, respectively. Besides, the “effect on systemic blood pressure” value in [3] was “did not have an adverse effect; also recorded: no significant effect”. In data set [4], the body weight result is “trend to a slower rate of decline”. Moreover, the IC50 was less than 500 nM in data set [5], 15 nM at PDGFR beta receptor and 21 nM at PDGFR alpha receptor. Besides, the PA systolic pressure in the data set on rat MCT+PN model of PAH [6] (4 min exposure 3x/day, after five days of treatment) was determined as 47.3±3.0 mm Hg; in the data set on rat MCT+PN model of PAH [6] (4 min exposure 3x/day, treatment day 8), 47.3±4.9 mm Hg; with rat MCT+PN model of PAH [6] (day 0 prior to start of treatment) it was 43.1±3.5 mm Hg. The pERK1/ERK1 result in data set [7] was “significant reductions”. In addition, the ppERK1/ERK1 entry in data set [7] is “significant reductions”.
